Patent US7259266B2, “Benzopyran compounds useful for treating inflammatory conditions” (Pharmacia Corporation, priority 2003, dated 2007)
“And” between values parts separate entries of the source, which are not always exact repeats. Equal entries are not always repeated.

Columns and labels:
[1] = target: T1, COX-2 (Homo sapiens, UniProt P35354); experiment: Assay for COX-2 activity (PGE2 formed, ELISA); format: biochemical, human or murine; conditions: human COX-2, standard assay, read-out: hCox-2 IC50
T1 construct: A 2.0 kb fragment containing the coding region of either human or murine COX-1 or human or murine COX-2; made in house; host or cells: SF9 insect cells (baculovirus, pVL1393)
T1 sequence (P35354 18-604): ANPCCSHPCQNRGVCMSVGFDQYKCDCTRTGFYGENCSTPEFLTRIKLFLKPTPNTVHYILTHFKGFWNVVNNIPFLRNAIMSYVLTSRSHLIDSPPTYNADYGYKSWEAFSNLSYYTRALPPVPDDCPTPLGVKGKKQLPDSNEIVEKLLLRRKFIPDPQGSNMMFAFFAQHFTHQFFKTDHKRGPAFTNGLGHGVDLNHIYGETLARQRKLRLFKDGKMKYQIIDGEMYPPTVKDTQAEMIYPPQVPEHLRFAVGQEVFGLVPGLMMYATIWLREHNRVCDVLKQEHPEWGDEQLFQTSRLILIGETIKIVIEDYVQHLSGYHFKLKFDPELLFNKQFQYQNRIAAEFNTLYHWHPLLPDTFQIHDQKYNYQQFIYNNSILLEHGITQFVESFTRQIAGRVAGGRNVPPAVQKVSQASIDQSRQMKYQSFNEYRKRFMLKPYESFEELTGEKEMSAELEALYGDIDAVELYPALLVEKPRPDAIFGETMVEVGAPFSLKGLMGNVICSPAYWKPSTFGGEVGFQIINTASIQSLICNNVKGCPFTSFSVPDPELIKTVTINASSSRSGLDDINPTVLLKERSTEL
Experimental: The COX-2 inhibition activity of the compounds of this invention illustrated in the Examples were determined by the following methods.
A 2.0 kb fragment containing the coding region of either human or murine COX-1 or human or murine COX-2 was cloned into a BamHl site of the baculovirus transfer vector pVL1393 (Invitrogen) to generate the baculovirus transfer vectors for COX-1 and COX-2 in a manner similar to the method of D.R. O'Reilly et al (Baculovirus Expression Vectors: A Laboratory Manual (1992)). Recombinant baculoviruses were isolated by transfecting 4 μg of baculovirus transfer vector DNA into SF9 insect cells (2×10^8) along with 200 ng of linearized baculovirus plasmid DNA by the calcium phosphate method. […] Recombinant viruses were purified by three rounds of plaque purification and high titer (10^7-10^8 pfu/mL) stocks of virus were prepared. For large scale production, SF9 insect cells were infected in 10 liter fermentors (0.5×10^6/mL) with the recombinant baculovirus stock such that the multiplicity of infection was 0.1. After 72 hours the cells were centrifuged and the cell pellet homogenized in Tris/Sucrose (50 mM: 25%, pH 8.0) containing 1% 3-[(3-cholamidopropyl)dimethylammonio]-1-propanesulfonate (CHAPS). The homogenate was centrifuged at 10,000×G for 30 minutes, and the resultant supernatant was stored at −80° C. before being assayed for COX activity.
COX activity was assayed as PGE2 formed/lg protein/time using an ELISA to detect the prostaglandin released. CHAPS-solubilized insect cell membranes containing the appropriate COX enzyme were incubated in a potassium phosphate buffer (50 mM, pH 8.0) containing epinephrine, phenol, and heme with the addition of arachidonic acid (10 μM). Compounds were pre-incubated with the enzyme for 10-20 minutes prior to the addition of arachidonic acid. […] The PGE2 formed was measured by standard ELISA technology (Cayman Chemical).

[2] = target: T1, COX-2; experiment: Modified assay for COX-2 activity (PGE2 formed, ELISA); format: biochemical, human or murine; conditions: human COX-2, replicate tests on separate lines, read-out: hCox-2 Modified IC50

Row | SMILES | IC50 ([1]; replicate tests on separate lines) | IC50 [2] | IC50 [1] [µM]
1 | O=C(O)C1=Cc2cc(Cl)c(Oc3ccc4c(c3)OCO4)cc2O[C@H]1C(F)(F)F (single isomer, unassigned) [Example 958a] | 0.0358 µM and ≤ 0.137 µM | 0.0293 µM and ≤ 0.137 µM | 
2 | CCCOc1c(Cl)cc(Cl)c2c1OC(C(F)(F)F)C(C(=O)O)=C2 (stereo not shown) [Example 23f, 5,7-dichloro-8-propoxy-2-(trifluoromethyl)-2H-chromene-3-carboxylic acid] |  |  | > 500
3 | Nc1c(Cl)cc(Oc2cccc3c2OC(C(F)(F)F)C(C(=O)O)=C3)c(F)c1Cl (stereo not shown) [Example 25d, 8-(4-amino-3,5-dichloro-2-fuorophenoxy)-2-(trifluoromethyl)-2H-chromene-3-carboxylic acid] |  |  | > 33.3
